Key:
[1] = system: non-G12D mutation cell lines; assay: In-cell covalent labeling by Western blot, non-G12D cell lines; assay type: cell-based
Experimental: (§1) Cells were passed for at least two generations after cryorecovery before they were used for assays. All cell lines were tested mycoplasma negative using MycoAlert™ Mycoplasma Detection Kit (Lonza). When indicated, cells were treated with drugs at 40-60% confluency at a final DMSO concentration of 1%. At the end of treatment period, cells were placed on ice. Unless otherwise indicated, adherent cells were washed once with ice-cold PBS (1 mL), scraped with a spatula, and pelleted by centrifugation (500×g, 5 min). Suspension cells were pelleted by centrifugation (500×g, 5 min), washed with 1 mL ice-cold PBS, and pelleted again. Cells were lysed in RIPA buffer supplemented with protease and phosphatase inhibitors (cOmplete and phosSTOP, Roche) on ice for 10 min. For RBD pulldown experiments, cells were lysed in Co-IP Lysis Buffer in lieu of RIPA buffer. Lysates were clarified by high-speed centrifugation (19,000×g, 10 min). Concentrations of lysates were determined with protein BCA assay (Thermo Fisher) and adjusted to 2 mg/mL with additional RIPA buffer (or Co-IP Lysis Buffer). […]
(§2) Unless otherwise noted, SDS-PAGE was run with Novex 12% Bis-Tris gel (Invitrogen) in MES running buffer (Invitrogen) at 200 V for 60 min following the manufacturer's instructions. […] The membrane was washed three times with TBST (5 min each wash) and imaged on a Li-COR Odyssey fluorescence imager.

[2] = target: T1, K-Ras G12D (Homo sapiens, UniProt P01116, G12D); assay: Covalent modification of recombinant K-Ras(G12D) by whole-protein mass spectrometry; assay type: binding
T1 construct: human K-Ras (G12D, aa 1-169); 6xHis tag + TEV cleavage site (N, cleaved yes); made in house; host or cells: E. coli BL21(DE3)
Experimental: (§3) Test compounds were prepared as 100× stock solutions in DMSO. K-Ras proteins were diluted with SEC Buffer (20 mM HEPES 7.5, 150 mM NaCl, 1 mM MgCl2) to 400 nM or 1 μM. In a typical reaction, 0.5 μL 100× compound stock was mixed with 50 μL diluted K-Ras protein, and the resulting mixture was incubated for the desired amount of time. The extent of modification was assessed by electrospray mass spectrometry using a Waters Xevo G2-XS system equipped with an Acquity UPLC BEH C4 1.7 μm column. The mobile phase was a linear gradient of 5-95% acetonitrile/water+0.05% formic acid. For kinetic measurements, a 2× compound solution was first prepared in SEC Buffer, which was then mixed with 400 nM K-Ras(G12D) protein at 1:1 (v/v) ratio. Injection time stamps were used to calculate elapsed time.

[3] = system: AGS cell line (heterozygous KRAS^G12D/WT); assay: In-cell covalent labeling by Western blot, AGS; assay type: cell-based
Experimental: as §1, §2

[4] = target: T1, K-Ras G12D; assay: Covalent modification of test protein after incubation with compound; assay type: binding; details: 24-h incubation with 100 μM compound at 23° C. at pH 7.5
[5] = system: non-G12D mutation cancer cell lines (H1299, HCT116, A549, A375); assay: Growth inhibition of non-G12D mutation cancer cell lines; assay type: cell-based
Experimental: (§4) Cells were seeded into 96-well white flat bottom plates (1,000 cells/well) (Corning) and incubated overnight. Cells were treated with the indicated compounds in a nine-point threefold dilution series (100 μL final volume) and incubated for 72 h. Cell viability was assessed using a commercial CellTiter-Glo (CTG) luminescence-based assay (Promega). Briefly, the 96-well plates were equilibrated to room temperature before the addition of diluted CTG reagent […] (1:4 CTG reagent:PBS). Plates were placed on an orbital shaker for 30 min before recording luminescence using a Spark 20M (Tecan) plate reader.

[6] = system: Ba/F3 KRAS G12D cells + interleukin-3; assay: Growth inhibition of Ba/F3 KRAS G12D cells co-treated with IL-3; assay type: cell-based, murine; details: IL-3, 10 ng/mL
Experimental: as §4

[7] = target: T2, K-Ras G12E (Homo sapiens, UniProt P01116, G12E); assay: Covalent modification of recombinant K-Ras(G12E) by whole-protein mass spectrometry; assay type: binding; details: GDP and GppNHp state
T2 construct: human K-Ras (G12E, aa 1-169); 6xHis tag + TEV cleavage site (N, cleaved yes); made in house; host or cells: E. coli BL21(DE3)
Experimental: as §3

[8] = system: SW1990 (homozygous KRAS^G12D/G12D); assay: In-cell covalent labeling and signaling by Western blot, SW1990; assay type: cell-based
Experimental: as §1, §2

[9] = target: T3, wild type K-Ras (Homo sapiens, UniProt P01116); assay: Covalent modification of test protein after incubation with compound; assay type: binding; details: 24-h incubation with 100 μM compound at 23° C. at pH 7.5
T3 construct: human K-Ras (wildtype, aa 1-169); 6xHis tag + TEV cleavage site (N, cleaved yes); made in house; host or cells: E. coli BL21(DE3)

[10] = target: T4, K-Ras(G13D) (Homo sapiens, UniProt P01116, G13D); assay: Covalent modification of recombinant K-Ras(G13D) by whole-protein mass spectrometry; assay type: binding; details: GDP and GppNHp state
T4 construct: human K-Ras (G13D, aa 1-169); 6xHis tag + TEV cleavage site (N, cleaved yes); made in house; host or cells: E. coli BL21(DE3)
Experimental: as §3

[11] = system: AsPC-1 (homozygous KRAS^G12D/G12D); assay: In-cell covalent labeling by Western blot, AsPC-1; assay type: cell-based
Experimental: as §1, §2

[12] = system: KRAS G12D mutation cancer cell lines; assay: Growth inhibition of KRAS G12D cancer cell lines; assay type: cell-based
Experimental: as §4

[13] = target: T2, K-Ras G12E; assay: Covalent modification of test protein after incubation with compound; assay type: binding; details: 24-h incubation with 100 μM compound at 23° C. at pH 7.5
[14] = system: BaF3/K-Ras(G12D) cells; assay: Growth inhibition of BaF3/K-Ras(G12D) cells; assay type: cell-based, murine; details: Mus musculus, read-out: IC50, growth of BaF3/K-Ras(G12D) cells
Experimental: as §4

[15] = target: T5, K-Ras(G12D)·GDP (Homo sapiens, UniProt P01116, G12D); assay: Detection of covalent modification of K-Ras(G12D) by tandem mass spectrometry; assay type: binding; details: 1 mM or 10 mM, 23° C., 1 h
T5 construct: human K-Ras (G12D, aa 1-169); 6xHis tag + TEV cleavage site (N, cleaved yes); made in house; host or cells: E. coli BL21(DE3)
Experimental: K-Ras(G12D) protein (1 μM, 100 μL) in PBS 7.4 was treated with β-propiolactone (1 mM or 10 mM) at 23° C. for 1 h. The reaction buffer was exchanged into Digestion Buffer (20 mM Tris 8.0, 2 mM CaCl2)) using a Zeba 0.5-mL desalting column (7K MWCO, Thermo Scientific). 80 μL of the resulting protein solution was mixed with 2 μL 200 mM DTT. The mixture was heated at 56° C. for 30 min. After cooling to 23° C., 4 μL 200 mM iodoacetamide was added. After 15 min at 23° C., 2.1 μL 200 mM DTT was added. After an additional 5 min, 500 ng trypsin was added to the mixture, and the samples were incubated at 37° C. overnight. 5 μL 10% formic acid was added to stop the digestion (final formic acid concentration: 0.5% v/v). The tryptic peptides were enriched and desalted using OMIX C18 tips (Agilent) following the manufacturer's instructions. Peptides (0.5% of total) were resolved on an Easy-Spray nano-HPLC column (Thermo Fisher ES800A, 150 mm length, […], […]) over a 54-min gradient of 2-37% acetonitrile-water+0.1% formic acid and analyzed by a Q-Exactive hybrid quadrupole-orbitrap mass spectrometer (MS1 resolution 70,000, AGC target: 3e6, range: 350-1500 m/z; MS2 resolution 17,500, AGC target: 5e4, max injection time: 120 ms, Top 10, NCE: 25%, dynamic exclusion: 15 s). […]

| Compound | in-cell labeling of K-Ras [1] | time to complete labeling of K-Ras(G12D)·GDP [2] | time to complete labeling of K-Ras(G12D)·GppNHp [2] | kinact/KI ([2]; read-out: kinact/KI against K-Ras(G12D)·GDP) | in-cell labeling of endogenous K-Ras [3] | % covalent modification of K-Ras G12D [4] | toxicity to non-G12D mutation cancer cell lines [5] | sensitivity of cells co-treated with interleukin-3 [6] | labeling of K-Ras G12E [7] | in-cell labeling of endogenous K-Ras(G12D) [8] | % covalent modification of wild type K-Ras [9] | labeling of K-Ras G13D [10] | in-cell labeling of endogenous K-Ras(G12D) [11] | growth of KRAS G12D cancer cell lines [12] | % covalent modification of K-Ras G12E [13] | IC50 [14] | alkylation of Asp12 in peptide LVVVGAD*GVGK [15] |
| --- | --- | --- | --- | --- | --- | --- | --- | --- | --- | --- | --- | --- | --- | --- | --- | --- | --- |
| C#Cc1c(F)ccc2cc(O)cc(-c3ncc4c(N5C[C@H]6CC[C@@H](C5)N6C(=O)[C@@H]5OC(=O)C5(C)C)nc(OC[C@@]56CCCN5C[C@H](F)C6)nc4c3F)c12 [(R)-7] | none in non-G12D mutation cell lines | ≤ 30 min | ≤ 300 min | 11000 M⁻¹ s⁻¹ | only half of the two alleles | 100% | minimal toxicity to the latter cell lines up to 10 μM concentration | lost sensitivity to (R)-7 up to 10 μM | not that of WT, G12E, G12S, or G13D | labeled endogenous K-Ras(G12D) completely | 0% | not that of WT, G12E, G12S, or G13D | labeled endogenous K-Ras(G12D) completely | selectively inhibited growth of cancer cells lines harboring K-Ras(G12D) mutation | 0% | 73 ± 17 nM |  |
| O=C1CCO1 [β-propiolactone] |  |  |  |  |  |  |  |  |  |  |  |  |  |  |  |  | the mutant aspartate was covalently alkylated by a 2-carboxylethyl group |
